{
  "source": "patent US5914242A",
  "about": "“Method for diminishing myocardial infarction using protein phosphatase inhibitors” (priority 1997, dated 1999)",
  "key": {"isolated myocytes": {"tested_on": "isolated myocytes", "test": "Isolated myocyte simulated ischemia, osmotic fragility (trypan blue) index", "type": "cell-based, rabbit", "conditions": "10 μM fostriecin added at onset of ischemia, 120 min; untreated cells 14.3", "method": "Isolated Myocytes: Rabbit hearts were mounted on a perfusion apparatus as described above and perfused with \"high potassium/low calcium\" perfusion buffer containing 125 mM NaCl, 30 mM KCl, 25 mM NaHCO3, 1.2 mM KH2 PO4, 1 mg/ml BSA, 1.2 mM MgCl2, 11 mM glucose, 0.68 mM 1-glutamine, and a complete amino acid solution (pH 7.4) for 5 minutes. Collagenase (Worthington Biochemical, Freehold, N.J.) was added at a concentration of 1.25 mg/ml and the heart was perfused for 45-60 minutes until it became soft. The heart was removed from the apparatus and minced in 5 mls of perfusion buffer containing 0.1% w/v BSA. […] Cell counts and viability were assessed by removing 10 μl aliquots, mixing with an equal volume of Tyrode's solution containing 1% trypan blue, and counting within 3-5 minutes by light microscopy. […]\nTo simulate ischemia, the suspension was divided into 4-6 conical Eppendorf tubes and each tube was spun lightly to form a 0.2-0.5 ml pellet of packed cells. […] Within 5 minutes, at least 300 cells were examined with an inverted stage microscope from multiple areas of the slide, and the numbers of rounded and rod-shaped cells and those stained with trypan blue recorded. […]\nThe percentage of stained (dead) cells was determined, and a plot of % dead cells vs. time was constructed. An index of non-survival was calculated as the area under the curve after 2 hours and presented as %-hr. […]"}, "isolated rabbit hearts": {"tested_on": "isolated rabbit hearts", "test": "Controlled coronary occlusion in isolated perfused (Langendorff) rabbit hearts, infarct size as % of risk zone", "conditions": "for infarct size, % of the risk zone: control 33%", "method": "New Zealand white rabbits were anesthetized with intravenous sodium pentobarbital (30 mg/kg). The trachea was intubated and mechanical ventilation was achieved. After a left thoracotomy, a snare was passed around the coronary artery and the hearts were excised quickly, mounted on a Langendorff apparatus and perfused at 75 mm Hg pressure with non-recirculating Krebs buffer containing 118.5 mM NaCl, 4.7 mM KCl, 1.2 mM MgSO4, 1.2 mM KH2 PO4, 24.8 mM NaHCO3, 2.5 mM CaCl2, and 10 mM glucose. The Krebs buffer was gassed with 95% O2 /5% CO2 resulting in a pH of 7.4-7.5. The temperature of the perfusate was maintained at 37° C.\nA fluid-filled latex balloon connected to a transducer with PE240 tubing was inserted into the left ventricle. The balloon volume was adjusted to set the left ventricular diastolic pressure equal to 5-10 mm Hg at the beginning of the experiment. Total coronary artery flow was measured by timed collection of perfusate dripping from the heart with a graduated cylinder.\nThe coronary artery was occluded for 30 minutes and reperfused for 2 hours. Fostriecin was mixed with oxygenated perfusate in a separate reservoir to a concentration of 1 μM. Treatment was begun by opening the line from the drug-laden reservoir and closing the line from the reservoir containing pure buffer. After 2 hours of reperfusion, the coronary artery was re-occluded, and 1-10 μm zinc cadmium sulfide fluorescent particles (Duke Scientific, Palo Alto, Calif.) were infused into the perfusate to demarcate the risk zone. The heart was removed, weighed, frozen, and cut into 2 mm thick slices. The slices were thawed and stained by incubation for 20 minutes at 37° C. in 1% triphenyltetrazolium chloride (TTC) in pH 7.4 buffer. The areas of infarct (TTC negative) and risk zone (non-fluorescent under ultraviolet light) were determined by planimetry. Infarct and risk zone volumes were calculated by multiplying each area by the slice thickness and summing the products. Infarct size for each heart was expressed as a percentage of the risk zone infarcted. In an untreated rabbit heart approximately 33% of the ischemic tissue infarcts in this model.\nEmploying the well-characterized rabbit model described herein in Example 1, a controlled coronary occlusion was employed to induce reproducibly myocardial infarctions in isolated hearts. Defining the risk zone as the tissue normally supplied with oxygenated blood by the coronary artery before it is occluded, a 30 minute coronary occlusion produces an infarction that averages 33% of the risk zone (see data for control rabbits; FIG. 1). When the isolated hearts were treated with 1 μM fostriecin administered 15 minutes prior to the onset of ischemia and present during the 30 minute ischemic period, a significant decrease in infarct size to 9% of the risk zone was obtained (FIG. 1). This level of protection is equivalent to that seen in ischemic preconditioning (see Cohen M. V., et al., Cardiol. Rev. 3(3):137-49 (1995)), and represents a substantial decrease in the amount of myocardial tissue damaged.\nSince the onset of a myocardial infarction usually cannot be predicted, a compound that provides protection when administered after the onset of ischemia is clinically far more useful than a compound that is effective only if administered before the coronary occlusion. […] The addition of 10 μM fostriecin 10 minutes after the onset of ischemia decreased infarction size to 19% of the risk zone. […]"}},
  "data": [
    {"smiles": "CC(O)(/C=C/C1CC=CC(=O)O1)C(CC(O)\\C=C/C=C\\C=C\\CO)OP(=O)(O)O", "note": "(stereo not drawn) [fostriecin]", "values": [
      {"measurement": "cell fragility index, area under the % trypan blue-positive cells vs time curve", "setting": "isolated myocytes", "value": 10.6, "unit": "%.cndot.hr"},
      {"measurement": "infarct size, % of the risk zone", "setting": "isolated rabbit hearts; 1 μM fostriecin from 15 minutes prior to ischemia and during 30-minute coronary occlusion", "value": "9 % of the risk zone"},
      {"measurement": "infarct size, % of the risk zone", "setting": "isolated rabbit hearts; 10 μM fostriecin added 10 minutes after onset of 30-minute ischemia", "value": "19 % of the risk zone"},
      {"measurement": "inhibition at 10 µM", "setting": "isolated rabbit hearts; Oryctolagus cuniculus, 10 min, 10 μM fostriecin added 10 minutes after onset of ischemia, read-out: infarction smaller than in untreated hearts", "value": 43, "unit": "%"},
      {"measurement": "hemodynamic effects", "setting": "isolated rabbit hearts; isolated rabbit heart perfused with 1 μM fostriecin", "value": "No hemodynamic effects were observed"},
      {"measurement": "concentration found to provide protection", "setting": "isolated rabbit hearts; perfused rabbit hearts", "value": "1 to 10", "unit": "µM"}
    ]}
  ]
}
